# Test results published in patent publication US7078059B2, “Treatment of bone diseases” (Shire Holdings AG, priority 2000, dated 2006).
# Where two headings read alike, the source gives them in different places.
# Columns and labels:
# [1] = system: limb bud mesodermal cells; settings: organoid cultures; cited from earlier work
# [2] = system: mouse bone marrow derived osteoprogenitor cells; assay: In vitro osteoblast differentiation assay (cellular alkaline phosphatase); assay type: cell-based; settings: for Osteoblast differentiation: significance of activation/inhibition vs baseline
# Text: We have established a culture model in which mouse bone marrow derived osteoprogenitor cells first proliferate and then differentiate to osteoblasts capable of forming mineralized bone nodules (Qu et al. 1998, Qu et al. 1999). We confirmed this by following the expression of several markers of the osteoblastic phenotype and by studying the morphology of cultures at light and electron microscopic level. […] Thus, this culture system fulfills requirements of an in vitro model useful for studying differentiation of osteoprogenitor cells into bone synthesizing osteoblasts. […] Animals were killed by cervical dislocation. Both femora were removed and the soft tissues were detached aseptically. Metaphyses from both ends were cut off and bone marrow cells were collected by flushing the diaphysis with culture medium: phenol red-free-α-modified essential medium (α-MEM (Gibco BRL, Paisley, UK)). […] The cells were cultured for 6 days and half of the media […] days. […] Cells were washed with warm PBS and adherent cells were detached using trypsin-EDTA. […] The test substances were added at the beginning of the secondary culture without estrogen, and every time when the medium was changed. The number of osteoblasts formed was determined by measuring cellular alkaline phosphatase (ALP) activity in the culture. […] Louis, Mo., USA), and overnight freezing. ALP activity was determined colorimetrically using p-nitrophenylphosphate as substrate at pH 9.7 and determining the optical density at 405 nm. In parallel, protein contents of the wells were determined by the BIO-RAD protein assay, and the specific ALP activity is expressed as units/mg protein. […] Osteoblast differentiation was determined by measuring cellular alkaline phosphatase (ALP) activities and total protein amounts from cell lysates. The ALP activities were divided with the corresponding protein amounts to obtain specific activities of ALP. The results are shown as relative specific activities obtained by dividing each individual value with the mean value of the baseline group.
# osteoclasts = settings: extracellular application; cited from earlier work
# [3] = system: osteoclast precursors in mouse bone marrow; settings: for Osteoclast differentiation: significance of activation/inhibition vs baseline
# Text: A method known as mouse bone marrow culture system is the one most widely used to study osteoclast differentiation. Originally, this method was developed by Takahashi et al. (1988a). Osteoclast precursors in mouse bone marrow can be induced to form multinucleated osteoclast-like cells (MNC) in the presence of either an active metabolite of vitamin D3 (1,25(OH)2D3) or parathyroid hormone (PTH). […] They form pits on bone or dentine slices (Takahashi et al. 1988a, Hattersley and Chambers 1989, Shinar et al. 1990); they express high levels of tartrate-resistant acid phosphatase (TRAP) and calcitonin receptors (Takahashi et al. 1988b, Shinar et al. 1990); and they respond to calcitonin (Takahashi et al. 1988a) and prostaglandin E2 (Collins and Chambers 1992). Thus, the method is an ideal one with which to study both stimulators and inhibitors of osteoclast differentiation.
# In the original culture system, the osteoclast formation was determined after an 8-day culture. In bone marrow, both non-adherent osteoclast precursors and stromal cells are present, the latter of which are needed to support osteoclast formation. The number of osteoclasts formed is generally determined by counting the number of TRAP-positive MNC containing at least three nuclei (Takahashi et al. 1988a).
# We have modified the original assay so that we culture 1×10^6 mouse marrow cells/ml for 6 days. […] Instead of counting of the number of differentiated osteoclasts formed, we measured the amount of TRAP liberated from osteoclasts into the culture medium using a fast, simple TRAP immunoassay (Halleen et al. 1999) presentation in the Annual Meeting of the American Society for Bone and Mineral Research, Sep. 30-Oct. 4, 1999, in St. Louis, Mo., USA.
# 8-10-week old mice were killed with CO2. Tibia and femora were dissected free from adhering soft tissues. The bone ends were cut off with a scalpel and the marrow was flushed with α-Minimal Essential Medium (α-MEM, Gibco BRL, Paisley, UK) supplemented with 100 IU/ml penicillin and 100 μg/ml streptomycin. A 10 ml syringe with a 27 gauge needle was used for flushing. Cells were centrifuged at 600×G for 10 minutes and the cell pellet was resuspended in -MEM containing 10% fetal calf serum. Cells were allowed to attach to plastic for 2 h at 37° C. in a 5% CO2 incubator to allow removal of monocytes and macrophages. Nonadherent cells were duly removed, and the […] bone marrow cells were cultured in 24-well plates (1×10^6 cells/well=1 ml) for 6 days. Half of the media were changed at day 3 and the treatments replaced. At the end of the culture, the plates were fixed with 2% paraformaldehyde in PBS for 20 minutes. Osteoclast formation was determined by measuring TRAP activity from the culture media using the novel TRAP immunoassay (vide infra), where we use a polyclonal TRAP antiserum prepared in rabbits against purified human bone TRAP. The TRAP antibody was bound to anti-rabbit IgG coated microtiter wells (Gibco BRL, Paisley, UK), and medium TRAP was then bound to the antibody. The activity of bound TRAP was measured in sodium acetate buffer using pNPP as substrate.
# In this study, the effect of the lanthanum (III) ion on osteoclast differentiation in the presence of 1,25-dihydroxyvitamin D3 was tested. The following sample groups were included: • Baseline (including vehicle) • Control (Baseline without 1,25-dihydroxyvitamin D3) • Baseline+100 ng/ml lanthanum • Baseline+500 ng/ml lanthanum • Baseline+1000 ng/ml lanthanum • Baseline+5000 ng/ml lanthanum • Baseline+15000 ng/ml lanthanum
# Six replicates were included in each group, and the test was performed twice. Baseline without 1,25-dihydroxyvitamin D3 was used as a control to show the test system allows inhibition of osteoclast differentiation to be detected.
# [4] = system: iliac crest of growing immature dogs
# Protocol: The specimens taken from the iliac crest of growing immature dogs were analysed. The group was divided into a control and treatment group. The treatment group received 1000 mg/Kg/day of lanthanum carbonate administered orally twice daily. The groups were run for 13 weeks, after which time samples of bone were taken vertically through the iliac crest, embedded in methyl methacrylate based resin, sectioned and stained with toluidine blue and Von Kossa stain.
compound,measurement,setting,value
"O.O.O.O.O=C([O-])[O-].O=C([O-])[O-].O=C([O-])[O-].[La+3].[La+3] [LA, lanthanum carbonate tetrahydrate]",Calcium accumulation,[1],reduced calcium accumulation
same,Endochondral mineralization,[1],inhibited endochondral mineralization
same,"Effect on osteoblast differentiation, in words",[2]; 100 ng/ml lanthanum,stimulate osteoblast differentiation
same,Osteoblast differentiation,[2]; Dose 100 ng/ml,+ (One character (+ or −) means a p-value between 0.05 and 0.01)
same,Osteoblast differentiation,[2]; Dose 500 ng/ml,0
same,Osteoblast differentiation,[2]; Dose 1000 ng/ml,0
same,Osteoblast differentiation,[2]; Dose 5000 ng/ml,− − −
same,Osteoblast differentiation,[2]; Dose 15000 ng/ml,− − −
same,"Effect on osteoblast differentiation, in words","[2]; LA number = ng/ml lanthanum, lanthanum (III) ion = 100-15000 ng/ml, 17-estradiol 10^−10 M",clear dose-dependent response
same,Cytosolic calcium in osteoclasts,osteoclasts,concentration-dependant elevation of cytosolic calcium
same,Osteoclast differentiation,[3]; Dose 100 ng/ml,− −
same,Osteoclast differentiation,[3]; Dose 500 ng/ml,0
same,Osteoclast differentiation,[3]; Dose 1000 ng/ml,− −
same,Osteoclast differentiation,[3]; Dose 5000 ng/ml,− − −
same,Osteoclast differentiation,[3]; Dose 15000 ng/ml,− − −
same,"Effect on osteoclast differentiation, in words","[3]; LA number = ng/ml lanthanum, vs baseline with 1,25-dihydroxyvitamin D3",inhibits osteoclast differentiation
same,Bone formation in growing dogs,"[4]; dose of 2,000 mg/kg/day lanthanum",enhanced bone formation
same,Bone volume and density compared to control animals,"[4]; growing dogs, dose of 2,000 mg/kg/day lanthanum",significant increase
same,"Other bone parameters investigated, treated vs control group","[4]; growing immature dogs, 1000 mg/Kg/day of lanthanum carbonate orally twice daily, 13 weeks, iliac crest",no statistically significant difference
